Experimental data taken from patent publication US7459277B2, “Mammalian T1R3 sweet taste receptors” (The Regents of the University of California, priority 2003, dated 2008).
Residues, ends and D or L forms follow the SMILES beside them.

What was measured:
HEK-293 cells = experiment: Ca-imaging, receptor independent rises in [Ca2+]i; assay type: cell-based, human; details: high concentrations of sugar
Procedure: Modified HEK-293 cells (PEAK^rapid cells; Edge BioSystems, Md.) were grown, transfected with […] and promiscuous G-proteins and assayed for functional responses to tastants by Ca-imaging essentially as described previously (Nelson, G. et al., Cell, 106, 381-390 (2001)). Minor differences in FURA-2 loading and Ca-imaging included using 199(H) Medium (Biosource) containing 0.1% BSA, 100 μM EGTA and 200 μM CaCl2 as assay buffer as well as reducing the time allowed for FURA-AM ester cleavage to 10 minutes. The imaging system was an Olympus IX50 microscope equipped with a 10×/0.5 N.A. fluor objective (Zeiss), the TILL imaging system (TILL Photonics GmbH), and a cooled CCD camera. Acquisition and analysis of fluorescence images used TILL-Vision software. To optimize coupling of […]-responses to changes in [Ca^2+]i, C-terminal residues of human Gα16 (Offermanns, S., and Simon, M. I., J Biol Chem, 270, 15175-15180 (1995)) were replaced with the corresponding residues from Gz (Mody, S. M. et al., Mol Pharmacol, 57, 13-23 (2000)), gustducin (McLaughlin, S. K. et al., Nature, 357, 563-569 (1992)) or Gαi2. […] Cell lines stably expressing T1R3 and Ggust-25 were established using puromycin and Zeocin (Invitrogen) selection. Three independent lines expressing T1R3 and Ggust-25 were used to examine the specificity and dose response of the T1R3 receptor.

rodents = details: 100 times higher concentrations than sweet to humans; cited from earlier work
[1] = system: T1R2 KO mice expressing a human T1R2 gene; experiment: Behavioral taste responses of mice expressing a human T1R2 transgene; assay type: in vivo, mouse; details: for behavioral response to human sweet tastants: humanized T1R2 mice (T1R2 KO + hT1R2 transgene), monellin ~10 uM, thaumatin ~5 uM, aspartame 10 mM, glycyrrhizic acid 500 uM, neohesperidin dihydrochalcone 400 uM
humans = details: sub-millimolar concentrations; cited from earlier work
T1R2+3 = target: T1, T1R2+3 (Mus musculus, UniProt Q925D8+Q925I4); experiment: Ca-imaging of HEK-293 cells co-transfected with T1R2 plus T1R3 and Ggust-25; assay type: cell-based; details: control cells expressing T1R2+3
T1 construct: expressed in transfected cells; host or cells: modified HEK-293 cells (PEAKrapid)
T1 sequence (Q925I4 20-843): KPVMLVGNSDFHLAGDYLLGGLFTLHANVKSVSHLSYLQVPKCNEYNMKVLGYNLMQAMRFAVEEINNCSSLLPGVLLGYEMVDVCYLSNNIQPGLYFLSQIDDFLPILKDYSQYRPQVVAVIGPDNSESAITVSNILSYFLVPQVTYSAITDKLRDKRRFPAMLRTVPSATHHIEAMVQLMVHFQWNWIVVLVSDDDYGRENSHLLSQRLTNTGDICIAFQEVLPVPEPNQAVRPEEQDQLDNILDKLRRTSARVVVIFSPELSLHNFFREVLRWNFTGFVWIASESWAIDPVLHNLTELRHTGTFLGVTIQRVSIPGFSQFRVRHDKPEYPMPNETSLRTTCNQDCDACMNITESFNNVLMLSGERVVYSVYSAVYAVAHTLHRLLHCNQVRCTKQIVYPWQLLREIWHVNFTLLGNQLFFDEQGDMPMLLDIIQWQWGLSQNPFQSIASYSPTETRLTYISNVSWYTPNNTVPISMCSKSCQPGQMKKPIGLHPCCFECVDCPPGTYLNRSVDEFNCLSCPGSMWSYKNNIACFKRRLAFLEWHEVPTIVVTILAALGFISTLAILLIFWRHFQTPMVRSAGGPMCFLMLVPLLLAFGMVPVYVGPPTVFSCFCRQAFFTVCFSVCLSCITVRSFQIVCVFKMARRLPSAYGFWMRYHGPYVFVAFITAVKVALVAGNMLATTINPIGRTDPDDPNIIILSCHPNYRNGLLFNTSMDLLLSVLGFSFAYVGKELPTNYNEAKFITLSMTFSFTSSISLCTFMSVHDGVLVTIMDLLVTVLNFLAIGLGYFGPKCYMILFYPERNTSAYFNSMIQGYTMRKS
T1 sequence (Q925D8 21-858): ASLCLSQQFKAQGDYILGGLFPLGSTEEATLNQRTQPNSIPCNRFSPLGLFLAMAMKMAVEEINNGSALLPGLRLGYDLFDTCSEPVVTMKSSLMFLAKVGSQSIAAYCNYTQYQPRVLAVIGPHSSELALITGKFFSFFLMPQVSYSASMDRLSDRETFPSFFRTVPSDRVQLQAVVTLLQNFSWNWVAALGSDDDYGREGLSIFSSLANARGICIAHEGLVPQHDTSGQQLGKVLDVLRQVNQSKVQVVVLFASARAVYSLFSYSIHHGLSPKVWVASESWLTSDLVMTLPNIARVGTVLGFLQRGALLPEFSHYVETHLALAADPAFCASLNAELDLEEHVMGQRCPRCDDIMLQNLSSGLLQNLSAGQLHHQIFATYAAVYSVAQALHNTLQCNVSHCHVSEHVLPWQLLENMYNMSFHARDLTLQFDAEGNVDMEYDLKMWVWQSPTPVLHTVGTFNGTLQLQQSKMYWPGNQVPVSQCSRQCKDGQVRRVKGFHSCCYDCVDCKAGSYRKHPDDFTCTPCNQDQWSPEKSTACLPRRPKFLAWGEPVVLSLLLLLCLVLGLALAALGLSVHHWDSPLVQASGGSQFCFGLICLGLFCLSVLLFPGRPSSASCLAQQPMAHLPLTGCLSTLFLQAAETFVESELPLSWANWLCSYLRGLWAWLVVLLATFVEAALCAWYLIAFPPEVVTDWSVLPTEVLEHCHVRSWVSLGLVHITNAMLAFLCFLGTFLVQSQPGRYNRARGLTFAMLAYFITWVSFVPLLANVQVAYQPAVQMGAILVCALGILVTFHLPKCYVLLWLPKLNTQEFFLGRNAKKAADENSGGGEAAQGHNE

mouse T1R3 GPCR = target: T2, mouse T1R3 GPCR (Mus musculus, UniProt Q925D8); experiment: Ca-imaging of HEK-293 cells expressing T1R3 and Ggust-25; assay type: cell-based; details: for T1R3 and Ggust-25 dependent responses: >300 mM, three independent stable lines
T2 construct: expressed in transfected cells
T2 sequence (Q925D8 21-858): T1 sequence (Q925D8 21-858)

T1R knockout mice [2] = experiment: Brief access taste test (lick rate relative to control) in wild-type and T1R knockout mice; assay type: in vivo, mouse; details: for behavioral responses, effect of T1R knockouts: T1R1, T1R2, T1R3 knockout versus wild-type
Excerpt: Two complementary strategies were used to assay the taste responses of the genetically modified mice. First, we recorded tastant-induced action potentials from one of the major nerves innervating taste receptor cells of the tongue (chorda tympani). This physiological assay monitors the activity of the taste system at the periphery, and provides a measure of taste receptor cell function. Second, we examined taste behavior by measuring taste-choices in standard long-term two-bottle intake preference assays, or by direct counting of immediate licking responses in a multi-channel gustometer (Glendinning, J. I. et al., Chem Senses, 27, 461-474 (2002); Zhang, Y. et al., Cell, 112, 293-301 (2003); see Experimental Procedures). This second method relies on very short exposures to tastants (5 s events over a total of 30 min versus 48 hrs for two-bottle preference assays), and therefore has the great advantage of minimizing the impact of other sensory inputs, and post-ingestive and learning effects from the assay.
Taste behavior was assayed using a short term assay that directly measures taste preferences by counting immediate licking responses in a multi-channel gustometer (Davis MS160-Mouse gustometer; DiLog Instruments, Tallahassee, Fla.). Mice were trained and tested as described previously (Zhang, Y. et al., Cell, 112, 293-301 (2003)). Individual mice were placed in the gustometer for 30 minutes, and stimuli were presented in random order for 5 s trials that were initiated by the mouse licking the stimulus spout. […] Data points represent the mean rate that mice licked a tastant relative to their sampling of an appropriate control tastant (ratio defined as lick rate relative to control); lick suppression is defined as 1 minus the lick rate relative to control.

T1R knockout mice [3] = experiment: Chorda tympani nerve recordings in wild-type and T1R knockout mice; assay type: in vivo, mouse; details: for physiological responses, effect of T1R knockouts: T1R1, T1R2, T1R3 knockout versus wild-type; for neural responses (chorda tympani): wild-type, T1R1, T1R2 and T1R3 knockout mice, 100 mM citric acid, 100 mM NaCl, 10 mM PROP; for physiological (nerve) responses: T1R3 KO mice, salt effects minimized
T1R1+3 = details: cited from earlier work; for activation of T1R1+3: psychophysically relevant concentrations
[4] = T1R1 and T1R3 knockout animals, L-Asp 100 mM, AP4 30 mM
[5] = T1R3 KO mice, salt effects minimized

Molecule: OC[C@H]1O[C@H](O[C@H]2O[C@H](CO)[C@@H](O)[C@H](O)[C@H]2O)[C@H](O)[C@@H](O)[C@@H]1O [trehalose]
- receptor independent rises in [Ca2+]i (HEK-293 cells): significant receptor independent rises in [Ca^2+]i

Molecule: COC(=O)[C@H](Cc1ccccc1)NC(=O)[C@@H](N)CC(=O)O [aspartame] (H-Asp-Phe-OMe)
- preference in rodents (rodents): no preference
- behavioral attraction ([1]; 10 mM, three independent human T1R2 transgenic lines): displayed behavioral attraction
- behavioral response to human sweet tastants [1]: ability to detect and respond
- sweet taste to humans (humans): taste sweet

Molecule: OC[C@H]1O[C@@](CO)(O[C@H]2O[C@H](CO)[C@@H](O)[C@H](O)[C@H]2O)[C@@H](O)[C@@H]1O [sucrose]
- [Ca2+]i response (T1R2+3; 300 mM sucrose): respond robustly
- increases in [Ca2+]i (FURA-2) (mouse T1R3 GPCR; 500 mM sucrose): increases in [Ca^2+]i
- T1R3 and Ggust-25 dependent responses (mouse T1R3 GPCR): dose dependent responses
- taste preference relative to water (T1R knockout mice [2]; T1R2 and T1R3 knockout animals): residual responses

Molecule: N[C@@H](CCC(=O)O)C(=O)[O-].[Na+] [MSG, monosodium glutamate]
- integrated chorda tympani response (T1R knockout mice [3]; T1R1 and T1R3 knockouts, high concentration of salt (100 mM MSG)): residual responses are detected
- taste preference relative to water (T1R knockout mice [2]; [4]): complete loss in preference

Molecule: NC(CCP(=O)(O)O)C(=O)O (stereo not shown) [AP4]
- activation of T1R1+3 (T1R1+3): activated
- taste preference relative to water (T1R knockout mice [2]; [4]): complete loss in preference

Molecule: C[C@H](N)C(=O)O [Ala]
- behavioral attraction (T1R knockout mice [2]; T1R1 KO animals, >300 mM): small residual attraction

Molecule: OC[C@H]1O[C@H](O[C@H]2[C@H](O)[C@@H](O)C(O)O[C@@H]2CO)[C@H](O)[C@@H](O)[C@@H]1O (mixture of isomers) [maltose]
- T1R3 and Ggust-25 dependent responses (mouse T1R3 GPCR): dose dependent responses
- taste preference relative to water (T1R knockout mice [2]; T1R2 and T1R3 knockout animals): residual responses

Molecule: N[C@@H](CO)C(=O)O [Ser]
- behavioral attraction (T1R knockout mice [2]; T1R1 KO animals, >300 mM): small residual attraction

Molecule: O=C(O)CC(O)(CC(=O)O)C(=O)O [citric acid]
- physiological responses, effect of T1R knockouts (T1R knockout mice [3]): no significant effect
- neural responses (chorda tympani) (T1R knockout mice [3]): robust neural responses
- behavioral responses, effect of T1R knockouts (T1R knockout mice [2]): no significant effect

Molecule: C[C@@H](O)[C@H](N)C(=O)O [Thr]
- behavioral attraction (T1R knockout mice [2]; T1R1 KO animals, >300 mM): small residual attraction

Molecule: CC1(C)[C@@H](O[C@H]2O[C@H](C(=O)O)[C@@H](O)[C@H](O)[C@H]2O[C@@H]2O[C@H](C(=O)O)[C@@H](O)[C@H](O)[C@H]2O)CC[C@]2(C)[C@H]3C(=O)C=C4[C@@H]5C[C@@](C)(C(=O)O)CC[C@]5(C)CC[C@@]4(C)[C@]3(C)CC[C@@H]12 [glycyrrhizic acid]
- behavioral response to human sweet tastants [1]: ability to detect and respond

Molecule: Nc1nc2c(ncn2[C@@H]2O[C@H](COP(=O)(O)O)[C@@H](O)[C@H]2O)c(=O)[nH]1 [GMP]
- enhancement of T1R1+3 activity (T1R1+3): reliably enhanced

Molecule: O=C1NS(=O)(=O)c2ccccc21 [saccharin]
- [Ca2+]i response (T1R2+3; 30 mM saccharin): respond robustly
- [Ca2+]i response (mouse T1R3 GPCR; 300 mM saccharin): No responses were detected

Molecule: O=C[C@H](O)[C@@H](O)[C@@H](O)[C@H](O)CO [galactose]
- receptor independent rises in [Ca2+]i (HEK-293 cells): significant receptor independent rises in [Ca^2+]i

Molecule: N[C@@H](CC(=O)O)C(=O)O [L-Asp, aspartic acid]
- physiological (nerve) responses (T1R knockout mice [3]): profound corresponding deficit in physiological responses
- activation of T1R1+3 (T1R1+3): activated
- taste preference relative to water (T1R knockout mice [2]; [4]): complete loss in preference
- behavioral attraction (T1R knockout mice [2]; [5]): dramatic loss of behavioral attraction

Molecule: N[C@@H](CCC(=O)O)C(=O)O [glutamate]
- physiological (nerve) responses (T1R knockout mice [3]): profound corresponding deficit in physiological responses
- behavioral attraction (T1R knockout mice [2]; [5]): dramatic loss of behavioral attraction

Molecule: O=C(CO)[C@@H](O)[C@H](O)[C@H](O)CO [fructose]
- receptor independent rises in [Ca2+]i (HEK-293 cells): significant receptor independent rises in [Ca^2+]i

Molecule: [Cl-].[Na+] [NaCl, sodium chloride]
- physiological responses, effect of T1R knockouts (T1R knockout mice [3]): no significant effect
- neural responses (chorda tympani) (T1R knockout mice [3]): robust neural responses
- behavioral responses, effect of T1R knockouts (T1R knockout mice [2]): no significant effect

Molecule: CCCc1cc(=O)[nH]c(=S)[nH]1 [PROP, 6-n-propyl-thiouracil]
- neural responses (chorda tympani) (T1R knockout mice [3]): robust neural responses

B1: monellin (protein)
chain 1: FREIKGYEYQLYVYASDKLFRADISEDYKTRGRKLLRFNGPVPPP
chain 2: GEWEIIDIGPFTQNLGKFAVDEENKIGQYGRLTFNKVIRPCMKKTIYEEN
notes: sweet protein
- preference in rodents (rodents): no preference
- behavioral response to human sweet tastants [1]: ability to detect and respond
- sweet taste to humans (humans): taste sweet

B2: thaumatin (protein)
chain: ATFEIVNRCSYTVWAAASKGDAALDAGGRQLNSGESWTINVEPGTNGGKIWARTDCYFDDSGSGICKTGDCGGLLRCKRFGRPPTTLAEFSLNQYGKDYIDISNIKGFNVPMDFSPTTRGCRGVRCAADIVGQCPAKLKAPGGGCNDACTVFQTSEYCCTTGKCGPTEYSRFFKRLCPDAFSYVLDKPTTVTCPGSSNYRVTFCPTA
notes: sweet protein
- preference in rodents (rodents): no preference
- behavioral response to human sweet tastants [1]: ability to detect and respond
- sweet taste to humans (humans): taste sweet
